Results from PubChem BioAssay (NCI).
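These data come from cells grown in 96-well plates and exposed to compound for 48 hours at five concentrations. GI50: concentration for 50% inhibition of growth. TGI: total growth inhibition.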

Assays:
Experiment in all cases: DTP human tumour cell line panel, 48 h
786-0 renal = system: 786-0 renal
A498 renal = system: A498 renal
A549 NSCLC = system: A549 NSCLC
ACHN renal = system: ACHN renal
BT-549 breast = system: BT-549 breast
CAKI-1 renal = system: CAKI-1 renal
CCRF-CEM leukemia = system: CCRF-CEM leukemia
COLO 205 colon = system: COLO 205 colon
DU-145 prostate = system: DU-145 prostate
EKVX NSCLC = system: EKVX NSCLC
HCC-2998 colon = system: HCC-2998 colon
HCT-116 colon = system: HCT-116 colon
HCT-15 colon = system: HCT-15 colon
HL-60(TB) leukemia = system: HL-60(TB) leukemia
HOP-62 NSCLC = system: HOP-62 NSCLC
HOP-92 NSCLC = system: HOP-92 NSCLC
HS 578T breast = system: HS 578T breast
HT29 colon = system: HT29 colon
IGROV1 ovarian = system: IGROV1 ovarian
K-562 leukemia = system: K-562 leukemia
KM12 colon = system: KM12 colon
LOX IMVI melanoma = system: LOX IMVI melanoma
M14 melanoma = system: M14 melanoma
MALME-3M melanoma = system: MALME-3M melanoma
MCF7 breast = system: MCF7 breast
MDA-MB-231 breast = system: MDA-MB-231 breast
MDA-MB-435 = system: MDA-MB-435
MOLT-4 leukemia = system: MOLT-4 leukemia
NCI-H226 lung = system: NCI-H226 lung
NCI-H23 lung = system: NCI-H23 lung
NCI-H460 lung = system: NCI-H460 lung
NCI-H522 lung = system: NCI-H522 lung
NCI/ADR-RES ovarian = system: NCI/ADR-RES ovarian
OVCAR-3 ovarian = system: OVCAR-3 ovarian
OVCAR-4 ovarian = system: OVCAR-4 ovarian
OVCAR-5 ovarian = system: OVCAR-5 ovarian
OVCAR-8 ovarian = system: OVCAR-8 ovarian
PC-3 prostate = system: PC-3 prostate
RPMI-8226 leukemia = system: RPMI-8226 leukemia
RXF 393 renal = system: RXF 393 renal
SF-268 CNS = system: SF-268 CNS
SF-295 CNS = system: SF-295 CNS
SF-539 CNS = system: SF-539 CNS
SK-MEL-2 melanoma = system: SK-MEL-2 melanoma
SK-MEL-28 melanoma = system: SK-MEL-28 melanoma
SK-MEL-5 melanoma = system: SK-MEL-5 melanoma
SK-OV-3 ovarian = system: SK-OV-3 ovarian
SN12C renal = system: SN12C renal
SNB-19 CNS = system: SNB-19 CNS
SNB-75 CNS = system: SNB-75 CNS
SR leukemia = system: SR leukemia
SW-620 colon = system: SW-620 colon
T-47D breast = system: T-47D breast
TK-10 renal = system: TK-10 renal
U251 CNS = system: U251 CNS
UACC-257 melanoma = system: UACC-257 melanoma
UACC-62 melanoma = system: UACC-62 melanoma
UO-31 renal = system: UO-31 renal

With `Cc1cc(Br)c2nsnc2c1[N+](=O)[O-]` the GI50 (786-0 renal) was 3.96 µM, the TGI (786-0 renal) was 13.7 µM and the GI50 (A498 renal) was 5.06 µM. For the same molecule, the TGI (A498 renal) was 15 µM, the GI50 (A549 NSCLC) was 4.13 µM and the TGI (A549 NSCLC) was 17.3 µM. For the same molecule, the GI50 (ACHN renal) was 4.39 µM, the TGI (ACHN renal) was 15.5 µM and the GI50 (BT-549 breast) was 3.95 µM. For the same molecule, the TGI (BT-549 breast) was 12 µM, the GI50 (CAKI-1 renal) was 1600 nM and the TGI (CAKI-1 renal) was 3.26 µM. For the same molecule, the GI50 (CCRF-CEM leukemia) was 2160 nM, the TGI (CCRF-CEM leukemia) was 5.44 µM and the GI50 (COLO 205 colon) was 3.01 µM. It also gave a TGI (COLO 205 colon) of 7.97 µM, a GI50 (DU-145 prostate) of 1660 nM and a TGI (DU-145 prostate) of 3.09 µM. The GI50 (EKVX NSCLC) was 1760 nM, the TGI (EKVX NSCLC) was 5.73 µM and the GI50 (HCC-2998 colon) was 2070 nM. For the same molecule, the TGI (HCC-2998 colon) was 4.44 µM, the GI50 (HCT-116 colon) was 1770 nM and the TGI (HCT-116 colon) was 3.63 µM. It also gave a GI50 (HCT-15 colon) of 4.28 µM, a TGI (HCT-15 colon) of 18.4 µM and a GI50 (HL-60(TB) leukemia) of 1860 nM. For the same molecule, the TGI (HL-60(TB) leukemia) was 4.56 µM, the GI50 (HOP-62 NSCLC) was 4.59 µM and the TGI (HOP-62 NSCLC) was 16.3 µM. The GI50 (HOP-92 NSCLC) was 7.24 µM, the TGI (HOP-92 NSCLC) was 22.1 µM and the GI50 (HS 578T breast) was 2970 nM. For the same molecule, the TGI (HS 578T breast) was 18.4 µM, the GI50 (HT29 colon) was 2040 nM and the TGI (HT29 colon) was 4.31 µM. For the same molecule, the GI50 (IGROV1 ovarian) was 1650 nM, the TGI (IGROV1 ovarian) was 3.62 µM and the GI50 (K-562 leukemia) was 968 nM. It also gave a GI50 (KM12 colon) of 245 nM, a TGI (KM12 colon) of 665 nM and a GI50 (LOX IMVI melanoma) of 940 nM. For the same molecule, the TGI (LOX IMVI melanoma) was 3.07 µM, the GI50 (M14 melanoma) was 1770 nM and the TGI (M14 melanoma) was 3.32 µM. For the same molecule, the GI50 (MALME-3M melanoma) was 2080 nM, the TGI (MALME-3M melanoma) was 6.55 µM and the GI50 (MCF7 breast) was 391 nM. The TGI (MCF7 breast) was 3.02 µM, the GI50 (MDA-MB-231 breast) was 5.01 µM and the TGI (MDA-MB-231 breast) was 15.6 µM. For the same molecule, the GI50 (MDA-MB-435) was 2860 nM, the TGI (MDA-MB-435) was 11.1 µM and the GI50 (MOLT-4 leukemia) was 1640 nM. It also gave a TGI (MOLT-4 leukemia) of 4.93 µM, a GI50 (NCI-H226 lung) of 7.13 µM and a TGI (NCI-H226 lung) of 19.2 µM. The GI50 (NCI-H23 lung) was 1900 nM, the TGI (NCI-H23 lung) was 3.9 µM and the GI50 (NCI-H460 lung) was 3.15 µM. The TGI (NCI-H460 lung) was 10.7 µM, the GI50 (NCI-H522 lung) was 176 nM and the TGI (NCI-H522 lung) was 381 nM. For the same molecule, the GI50 (NCI/ADR-RES ovarian) was 4.54 µM, the TGI (NCI/ADR-RES ovarian) was 20.7 µM and the GI50 (OVCAR-3 ovarian) was 1690 nM. It also gave a TGI (OVCAR-3 ovarian) of 3.08 µM, a GI50 (OVCAR-4 ovarian) of 4.73 µM and a TGI (OVCAR-4 ovarian) of 17.3 µM. The GI50 (OVCAR-5 ovarian) was 4.55 µM, the TGI (OVCAR-5 ovarian) was 15.9 µM and the GI50 (OVCAR-8 ovarian) was 3.18 µM. The TGI (OVCAR-8 ovarian) was 12.1 µM, the GI50 (PC-3 prostate) was 4.49 µM and the TGI (PC-3 prostate) was 15.8 µM. The GI50 (RPMI-8226 leukemia) was 666 nM, the TGI (RPMI-8226 leukemia) was 9.55 µM and the GI50 (RXF 393 renal) was 6.66 µM. It also gave a TGI (RXF 393 renal) of 18.5 µM, a GI50 (SF-268 CNS) of 2000 nM and a TGI (SF-268 CNS) of 5.16 µM. For the same molecule, the GI50 (SF-295 CNS) was 2960 nM, the TGI (SF-295 CNS) was 12.1 µM and the GI50 (SF-539 CNS) was 3.1 µM. The TGI (SF-539 CNS) was 11.2 µM, the GI50 (SK-MEL-2 melanoma) was 3.45 µM and the TGI (SK-MEL-2 melanoma) was 8.89 µM. The GI50 (SK-MEL-28 melanoma) was 3.34 µM, the TGI (SK-MEL-28 melanoma) was 7.67 µM and the GI50 (SK-MEL-5 melanoma) was 3.88 µM. It also gave a TGI (SK-MEL-5 melanoma) of 13.8 µM, a GI50 (SK-OV-3 ovarian) of 13.5 µM and a TGI (SK-OV-3 ovarian) of 26.4 µM. The GI50 (SN12C renal) was 4.93 µM, the TGI (SN12C renal) was 17.2 µM and the GI50 (SNB-19 CNS) was 7.63 µM. It also gave a TGI (SNB-19 CNS) of 20.6 µM, a GI50 (SNB-75 CNS) of 3.46 µM and a TGI (SNB-75 CNS) of 15.4 µM. The GI50 (SR leukemia) was 706 nM, the TGI (SR leukemia) was 3.23 µM and the GI50 (SW-620 colon) was 2150 nM. It also gave a TGI (SW-620 colon) of 15.1 µM, a GI50 (T-47D breast) of 921 nM and a TGI (T-47D breast) of 5.96 µM. For the same molecule, the GI50 (TK-10 renal) was 3.72 µM, the TGI (TK-10 renal) was 12.4 µM and the GI50 (U251 CNS) was 2730 nM. For the same molecule, the TGI (U251 CNS) was 8.12 µM, the GI50 (UACC-257 melanoma) was 3.87 µM and the TGI (UACC-257 melanoma) was 10.9 µM. For the same molecule, the GI50 (UACC-62 melanoma) was 7.13 µM, the TGI (UACC-62 melanoma) was 20 µM and the GI50 (UO-31 renal) was 2050 nM. It also gave a TGI (UO-31 renal) of 8.23 µM.
